Data set [1] can be described thus: Kinetic profile of in vitro drug release by dialysis. The format is physicochemical. Conditions: dialysis in PBS pH 7.4 with 0.1% Tween 80, 37° C., 72 hr; burst within first 10 hr. The protocol:
The kinetics of in vitro release of drugs from the loaded NPs and free drugs were studied by the dialysis method. One (1) ml of drug-loaded NPs or free drugs (both systems in DW) were placed in dialysis bags (molecular weight cutoff of 3.5 kDa, Sigma-Aldrich, Merck, Rehovot, Israel) and incubated in 30 ml volume of plasma simulating buffer comprising phosphate-buffered saline (PBS, 10 mM, pH 7.4) containing 0.1% tween 80 for 72 hr, at 37° C., with continuous gentle agitation. At defined time intervals (0, 2, 4, 6, 10, 23, 29, 36, 47, 58, 72 hr), the dialysate was collected and replaced by the same volume of fresh release buffer. To calculate the cumulative release of drugs, the dialysates from each time point were freeze-dried, dissolved in EtOH or DMSO for CTX or ENZ extraction, respectively, filtered through 0.45 μm membrane, and quantified using RP-HPLC, as described above. The results are presented as means of two experiments±SE.
The kinetics of in vitro release of CTX and ENZ from NPs were assessed by dialysis in a large volume of a plasma-simulating buffer for 72 hr at 37° C., with continuous mixing. […] At defined time intervals, the dialysate was replaced with a fresh buffer, and the drug was quantified using RP-HPLC. […]

Data set [2] has as its system LNCaP target cells (PSMA-positive PC cell line). Put plainly: XTT growth inhibition assay, LNCaP. It counts as cell-based. Conditions: Homo sapiens, free drug in growth medium for 72 hr. The protocol:
(§1) The selective growth inhibition of CTX-loaded NPs was studied in LNCaP target cells and PC-3 non-target cells, using an XTT-based colorimetric cell proliferation kit as previously described. The preparation of CTX-loaded NPs was performed as described and had undergone 24 hr dialysis before cell exposure, to simulate the conditions in the human body. The dialysis was conducted as described in the “Kinetic profile of in vitro drug release” in the materials and methods section, but with the use of 10% FBS to capture the released CTX. Prior to the experiment, 96-well plates were coated with poly-L-Lysine before cell plating. LNCaP and PC-3 cells were seeded in 96-well plates at 5×10^4 and 2.5×10^4 cells/ml, respectively, and incubated overnight to allow for cell attachment. Following exposure of cells to CTX-loaded NPs at increasing CTX concentrations of 0.001-100 nM for 24 hr, cells were incubated for additional 72 hr with fresh growth medium. Cellular growth inhibition was determined by adding the XTT reagent. Data were plotted using a nonlinear curve fitting of a sigmoidal model (Hill1) with OriginPro 9.0 to obtain a dose-response curve according to Equation (3): […]
(In general: Formazan colour is commonly taken as a measure of viable cells.)

Data set [3] has as its system PC-3 non-target cells (PSMA-negative PC cell line). The data set can be described thus: XTT growth inhibition assay, PC-3. Conditions: Homo sapiens; free drug in growth medium for 72 hr. The format is cell-based. The protocol: as §1
The test system of data set [4] is LNCaP cells. Particulars: exposure for 48 hr; cited from earlier work.

Broadly, the IC50 is the concentration that gives 50% inhibition. For `CO[C@H]1C(=O)[C@]2(C)[C@@H](OC)C[C@H]3OC[C@@]3(OC(C)=O)[C@H]2[C@H](OC(=O)c2ccccc2)[C@]2(O)C[C@H](OC(=O)[C@H](O)[C@@H](NC(=O)OC(C)(C)C)c3ccccc3)C(C)=C1C2(C)C` [free CTX, Cabazitaxel], the “in vitro release profile” value in data set [1] is “burst release”. Further, the figures for the IC50 in data set [2], in data set [3] and in data set [4] were 0.25 ± 0.04 nM, 0.18 ± 0.04 nM and 2.6 to 3.1 nM, respectively.
With `CNC(=O)c1ccc(N2C(=S)N(c3ccc(C#N)c(C(F)(F)F)c3)C(=O)C2(C)C)cc1F` [unencapsulated ENZ, Enzalutamide], the “in vitro release profile” value in data set [1] is given as “burst release”.

The values above are taken from patent US20240156742A1, “TARGETED MULTIFUNCTIONAL NANOSTRUCTURED LIPID CARRIERS” (TECHNION RESEARCH & DEVELOPMENT FOUNDATION LIMITED, priority 2021, published 2024).
